For 17 compounds, IC50 results are on record in patent US20250340886A1, “INTRACELLULAR KINASE ASSOCIATED WITH RESISTANCE AGAINST ANTI-TUMOUR IMMUNE RESPONSES, AND USES THEREOF” (iOmx Therapeutics AG, priority 2017, published 2025).

Structures are written as SMILES. Like-named read-outs stand apart in the source and are kept apart here. Some results are limits rather than exact numbers.

Common to all, as to experiment: radiometric protein kinase assay (33PanQinase Activity Assay, ProQinase Free Choice Kinase Assay)
Holding throughout (assay type): biochemical

One assay deals with SIK1 (Homo sapiens (Human), UniProt P57059). The settings on record: read-out: SIK1 IC50 rank.
Chain of SIK1 (P57059 whole entry): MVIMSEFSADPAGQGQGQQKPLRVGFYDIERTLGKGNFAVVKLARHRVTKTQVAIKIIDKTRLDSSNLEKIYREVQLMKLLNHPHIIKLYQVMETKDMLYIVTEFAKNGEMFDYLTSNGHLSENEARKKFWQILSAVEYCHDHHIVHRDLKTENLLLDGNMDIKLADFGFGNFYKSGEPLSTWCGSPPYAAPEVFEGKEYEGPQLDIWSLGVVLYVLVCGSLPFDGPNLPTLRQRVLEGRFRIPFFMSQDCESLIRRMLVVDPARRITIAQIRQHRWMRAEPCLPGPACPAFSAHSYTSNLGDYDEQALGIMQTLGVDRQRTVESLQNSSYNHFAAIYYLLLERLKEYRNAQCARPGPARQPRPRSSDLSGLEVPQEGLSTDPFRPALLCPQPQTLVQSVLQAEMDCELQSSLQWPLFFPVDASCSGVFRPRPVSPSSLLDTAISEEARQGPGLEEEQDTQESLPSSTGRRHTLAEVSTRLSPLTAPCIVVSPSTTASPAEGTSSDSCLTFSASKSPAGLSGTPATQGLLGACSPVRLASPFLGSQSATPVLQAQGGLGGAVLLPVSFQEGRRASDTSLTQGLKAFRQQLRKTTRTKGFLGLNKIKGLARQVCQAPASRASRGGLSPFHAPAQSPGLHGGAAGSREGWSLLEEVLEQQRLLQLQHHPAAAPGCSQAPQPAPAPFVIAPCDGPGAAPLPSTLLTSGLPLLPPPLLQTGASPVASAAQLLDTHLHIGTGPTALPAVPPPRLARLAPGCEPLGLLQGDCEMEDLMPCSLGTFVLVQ
A further assay deals with SIK2 (Homo sapiens (Human), UniProt Q9H0K1). The settings on record: ATP 1.0 uM, read-out: SIK2 IC50 rank.
Chain of SIK2 (Q9H0K1 whole entry): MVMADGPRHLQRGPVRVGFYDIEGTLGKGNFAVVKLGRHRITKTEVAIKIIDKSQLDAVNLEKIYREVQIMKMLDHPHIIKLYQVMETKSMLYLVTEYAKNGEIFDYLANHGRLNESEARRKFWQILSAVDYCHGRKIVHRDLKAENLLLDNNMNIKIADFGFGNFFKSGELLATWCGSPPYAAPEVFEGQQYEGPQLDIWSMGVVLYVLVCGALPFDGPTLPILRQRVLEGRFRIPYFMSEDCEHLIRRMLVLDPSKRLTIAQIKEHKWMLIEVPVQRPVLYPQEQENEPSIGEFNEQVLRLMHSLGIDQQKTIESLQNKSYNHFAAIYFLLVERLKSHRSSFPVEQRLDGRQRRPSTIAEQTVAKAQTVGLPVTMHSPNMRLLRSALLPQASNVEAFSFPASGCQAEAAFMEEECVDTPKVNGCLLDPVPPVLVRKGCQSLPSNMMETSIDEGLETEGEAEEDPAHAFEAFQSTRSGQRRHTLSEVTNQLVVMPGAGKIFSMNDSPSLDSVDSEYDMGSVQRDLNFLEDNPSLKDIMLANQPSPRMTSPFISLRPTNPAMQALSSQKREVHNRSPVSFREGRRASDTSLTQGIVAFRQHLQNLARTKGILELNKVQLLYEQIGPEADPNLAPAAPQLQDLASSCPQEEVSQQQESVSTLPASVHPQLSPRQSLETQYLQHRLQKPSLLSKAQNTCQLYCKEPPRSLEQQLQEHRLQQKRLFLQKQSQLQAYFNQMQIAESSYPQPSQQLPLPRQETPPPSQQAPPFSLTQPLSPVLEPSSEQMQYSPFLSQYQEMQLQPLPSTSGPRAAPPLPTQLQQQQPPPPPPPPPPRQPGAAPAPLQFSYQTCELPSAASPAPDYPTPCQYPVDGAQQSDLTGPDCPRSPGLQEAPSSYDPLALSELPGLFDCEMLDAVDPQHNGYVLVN
The next assay concerns the target SIK3 (Homo sapiens (Human), UniProt Q9Y2K2). The settings on record: read-out: SIK3 IC50 rank.
The target in a further assay is ABL1 wt (Homo sapiens (Human), UniProt P00519). The following applies: indicative IC50, Table 4; ATP 0.3 uM; read-out: ABL1 IC50 rank.
Chain of ABL1 wt (P00519 whole entry): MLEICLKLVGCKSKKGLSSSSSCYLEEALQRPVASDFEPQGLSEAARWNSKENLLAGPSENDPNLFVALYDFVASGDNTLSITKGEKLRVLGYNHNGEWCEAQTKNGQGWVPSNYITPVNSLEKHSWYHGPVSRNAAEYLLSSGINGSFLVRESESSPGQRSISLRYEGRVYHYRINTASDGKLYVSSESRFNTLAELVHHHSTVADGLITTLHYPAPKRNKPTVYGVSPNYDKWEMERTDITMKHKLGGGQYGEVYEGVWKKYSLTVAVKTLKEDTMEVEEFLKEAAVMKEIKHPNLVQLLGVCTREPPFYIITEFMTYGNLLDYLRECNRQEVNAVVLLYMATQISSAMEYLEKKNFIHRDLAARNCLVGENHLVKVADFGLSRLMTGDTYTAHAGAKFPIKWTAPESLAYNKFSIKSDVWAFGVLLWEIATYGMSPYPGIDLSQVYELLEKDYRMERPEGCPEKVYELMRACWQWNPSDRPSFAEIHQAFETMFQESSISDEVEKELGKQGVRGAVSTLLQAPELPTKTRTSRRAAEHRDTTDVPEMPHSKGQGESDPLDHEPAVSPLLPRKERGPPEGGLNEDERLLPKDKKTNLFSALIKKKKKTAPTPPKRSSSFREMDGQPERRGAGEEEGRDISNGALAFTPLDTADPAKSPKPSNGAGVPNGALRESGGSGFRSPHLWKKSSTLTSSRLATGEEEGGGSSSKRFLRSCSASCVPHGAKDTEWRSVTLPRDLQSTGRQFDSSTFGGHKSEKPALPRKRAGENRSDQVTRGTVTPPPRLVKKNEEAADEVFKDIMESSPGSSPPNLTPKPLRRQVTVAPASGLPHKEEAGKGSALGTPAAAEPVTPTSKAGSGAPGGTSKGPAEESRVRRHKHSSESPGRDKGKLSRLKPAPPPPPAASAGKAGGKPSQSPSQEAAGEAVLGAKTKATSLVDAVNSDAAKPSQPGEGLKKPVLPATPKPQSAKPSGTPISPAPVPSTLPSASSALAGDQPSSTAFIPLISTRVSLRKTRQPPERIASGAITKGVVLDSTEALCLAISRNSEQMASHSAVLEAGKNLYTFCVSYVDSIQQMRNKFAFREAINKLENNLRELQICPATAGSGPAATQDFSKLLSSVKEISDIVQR
A further assay deals with SRC (GST-HIS-tag) (Homo sapiens (Human), UniProt P12931). The following applies: indicative IC50, Table 4; ATP 0.3 uM; read-out: SRC IC50 rank.
Chain of SRC (GST-HIS-tag) (P12931 whole entry, looked up): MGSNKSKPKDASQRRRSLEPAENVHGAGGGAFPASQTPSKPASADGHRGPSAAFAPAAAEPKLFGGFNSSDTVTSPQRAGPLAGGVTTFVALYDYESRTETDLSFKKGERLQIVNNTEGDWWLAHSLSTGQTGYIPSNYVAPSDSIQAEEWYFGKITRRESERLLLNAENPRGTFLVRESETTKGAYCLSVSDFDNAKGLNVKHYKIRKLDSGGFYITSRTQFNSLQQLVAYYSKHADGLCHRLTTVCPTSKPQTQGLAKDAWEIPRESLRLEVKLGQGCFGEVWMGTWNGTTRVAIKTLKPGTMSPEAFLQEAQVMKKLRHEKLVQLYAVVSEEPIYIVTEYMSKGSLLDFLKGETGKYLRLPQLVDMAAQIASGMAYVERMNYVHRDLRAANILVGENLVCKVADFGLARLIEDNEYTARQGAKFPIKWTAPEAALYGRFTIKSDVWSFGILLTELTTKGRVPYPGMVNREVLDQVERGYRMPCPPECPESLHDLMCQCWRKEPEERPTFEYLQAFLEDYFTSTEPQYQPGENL
Setting [1] is: indicative IC50, Table 2A, ATP 3.0 uM.
Setting [2] is: indicative IC50, Table 2A, ATP 1.0 uM.
Setting [3] is: indicative IC50, Table 4, ATP 3.0 uM.
Setting [4] is: indicative IC50, Table 4, ATP 1.0 uM.

Chain of SIK3 (Q9Y2K2 whole entry): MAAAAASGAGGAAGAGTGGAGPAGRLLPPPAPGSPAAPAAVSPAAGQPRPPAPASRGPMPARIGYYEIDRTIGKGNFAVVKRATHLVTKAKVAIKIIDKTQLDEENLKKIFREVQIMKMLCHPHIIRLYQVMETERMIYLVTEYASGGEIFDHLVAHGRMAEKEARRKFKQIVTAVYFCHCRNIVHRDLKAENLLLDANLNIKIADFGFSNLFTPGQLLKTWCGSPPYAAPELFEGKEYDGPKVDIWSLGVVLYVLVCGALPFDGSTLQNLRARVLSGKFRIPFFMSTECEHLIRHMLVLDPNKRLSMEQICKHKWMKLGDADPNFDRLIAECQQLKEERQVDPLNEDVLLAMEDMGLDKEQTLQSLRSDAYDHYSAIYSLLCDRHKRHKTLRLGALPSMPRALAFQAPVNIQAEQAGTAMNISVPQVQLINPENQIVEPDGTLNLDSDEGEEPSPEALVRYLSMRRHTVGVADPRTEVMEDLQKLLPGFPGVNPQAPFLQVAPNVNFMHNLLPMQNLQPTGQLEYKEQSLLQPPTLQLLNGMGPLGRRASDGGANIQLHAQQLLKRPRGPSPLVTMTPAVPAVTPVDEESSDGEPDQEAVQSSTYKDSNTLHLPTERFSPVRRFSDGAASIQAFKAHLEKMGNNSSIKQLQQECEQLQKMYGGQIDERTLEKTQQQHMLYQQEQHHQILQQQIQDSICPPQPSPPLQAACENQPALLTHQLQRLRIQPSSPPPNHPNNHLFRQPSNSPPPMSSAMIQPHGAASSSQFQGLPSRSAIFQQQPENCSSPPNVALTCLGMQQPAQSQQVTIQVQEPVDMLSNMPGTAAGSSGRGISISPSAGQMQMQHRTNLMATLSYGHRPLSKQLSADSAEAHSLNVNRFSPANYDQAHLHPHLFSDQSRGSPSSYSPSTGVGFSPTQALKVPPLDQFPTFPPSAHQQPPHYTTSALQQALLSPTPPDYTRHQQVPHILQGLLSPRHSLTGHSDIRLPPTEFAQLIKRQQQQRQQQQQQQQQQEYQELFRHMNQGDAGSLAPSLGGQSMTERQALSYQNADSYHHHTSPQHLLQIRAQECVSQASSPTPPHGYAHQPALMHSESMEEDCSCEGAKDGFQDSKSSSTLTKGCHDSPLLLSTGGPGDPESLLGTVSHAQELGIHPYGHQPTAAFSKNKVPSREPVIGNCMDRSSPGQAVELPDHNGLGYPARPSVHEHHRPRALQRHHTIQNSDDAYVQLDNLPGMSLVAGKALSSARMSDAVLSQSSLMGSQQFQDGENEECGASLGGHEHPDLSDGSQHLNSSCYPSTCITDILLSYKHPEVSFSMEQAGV

One may read the IC50 as the midpoint of a concentration-inhibition curve. As to `Cc1nc(Nc2ncc(C(=O)Nc3c(F)cccc3Cl)s2)cc(N2CCN(CCO)CC2)n1` [Compound A1, N-(2-chloro-6-fluorophenyl)-2-((6-(4-(2-hydroxyethyl)piperazin-1-yl)-2-methylpyrimidin-4-yl)amino)thiazole-5-carboxamide], the IC50 on SIK1 (setting [1]) was less than 100 nM; at SIK2 (indicative IC50, Table 2A), less than 100 nM; on SIK3 (setting [2]), less than 100 nM.
With `Cc1nc(Nc2ncc(C(=O)Nc3c(F)cccc3F)s2)cc(N2CCN(CCO)CC2)n1` [Compound A2, N-(2,6-difluorophenyl)-2-((6-{4-(2-hydroxyethyl)piperazin-1-yl)-2-methylpyrimidin-4-yl)amino)thiazole-5-carboxamide], the IC50 at SIK1 (setting [1]) is less than 100 nM; on SIK2 (indicative IC50, Table 2A), less than 100 nM; on SIK3 (setting [2]), less than 100 nM.
On to `Cc1nc(Nc2ncc(C(=O)Nc3c(F)cccc3Br)s2)cc(N2CCN(CCO)CC2)n1` [Compound A3, N-(2-bromo-6-fluorophenyl)-2-((6-(4-(2-hydroxyethyl)piperazin-1-yl)-2-methylpyrimidin-4-yl)amino)thiazole-5-carboxamide], for which the IC50 was less than 100 nM on SIK1 (setting [1]); less than 100 nM at SIK2 (indicative IC50, Table 2A); less than 100 nM at SIK3 (setting [2]).
For the compound `C#Cc1cccc(NC(=O)c2cnc(Nc3cc(N4CCN(CCO)CC4)nc(C)n3)s2)c1` [Compound A4, N-(3-ethynylphenyl)-2-((6-(4-(2-hydroxyethyl)piperazin-1-yl)-2-methylpyrimidin-4-yl)amino)thiazole-5-carboxamide], the IC50 is more than 1000 nM at SIK1 (setting [1]); more than 100 nM on SIK2 (indicative IC50, Table 2A); more than 1000 nM at SIK3 (setting [2]).
On to `Cc1nc(Nc2ncc(C(=O)Nc3ccc(F)cc3)s2)cc(N2CCN(CCO)CC2)n1` [Compound A5, N-(4-fluorophenyl)-2-((6-(4-(2-hydroxyethyl)piperazin-1-yl)-2-methylpyrimidin-4-yl)amino)thiazole-5-carboxamide], for which the IC50 on SIK1 (setting [1]) is more than 100 nM; at SIK2 (indicative IC50, Table 2A), more than 100 nM; at SIK3 (setting [2]), more than 1000 nM.
Take `Cc1nc(Nc2ncc(C(=O)Nc3ccc(Br)cc3F)s2)cc(N2CCN(CCO)CC2)n1` [Compound A7, N-(4-bromo-6-fluorophenyl)-2-((6-(4-(2-hydroxyethyl)piperazin-1-yl)-2-methylpyrimidin-4-yl)amino)thiazole-5-carboxamide]: the IC50 on SIK1 (setting [1]) was less than 100 nM; on SIK2 (indicative IC50, Table 2A), more than 100 nM; on SIK3 (setting [2]) it was more than 500 nM.
For `Cc1nc(Nc2ncc(C(=O)Nc3ccccc3C)s2)cc(N2CCN(CCO)CC2)n1` [Compound A9, 2-((6-(4-(2-hydroxyethyl)piperazin-1-yl)-2-methylpyrimidin-4-yl)amino)-N-(o-tolyl)thiazole-5-carboxamide], in that order: less than 100 nM, less than 100 nM and less than 100 nM.
In the case of `Cc1nc(Nc2ncc(C(=O)Nc3ccccc3Cl)s2)cc(N2CCN(CCO)CC2)n1` [Compound A10, N-(2-chlorophenyl)-2-((6-(4-(2-hydroxyethyl)piperazin-1-yl)-2-methylpyrimidin-4-yl)amino)thiazole-5-carboxamide], the 50% inhibitory concentration (IC50) at SIK1 (setting [1]) was less than 100 nM; at SIK2 (indicative IC50, Table 2A), less than 100 nM; at SIK3 (setting [2]), more than 100 nM.
As to `Cc1nc(Nc2ncc(C(=O)Nc3c(C)cccc3C)s2)cc(N2CCN(CCO)CC2)n1` [Compound A12, N-(2,6-dimethylphenyl)-2-((6-(4-(2-hydroxyethyl)piperazin-1-yl)-2-methylpyrimidin-4-yl)amino)thiazole-5-carboxamide], the IC50 on SIK1 (setting [1]) was less than 100 nM; at SIK2 (indicative IC50, Table 2A) it was less than 100 nM; at SIK3 (setting [2]) it was less than 100 nM.
With `Cc1nc(Nc2ncc(C(=O)Nc3c(Cl)cccc3Cl)s2)cc(N2CCN(CCO)CC2)n1` [Compound A13, N-(2,6-dichlorophenyl)-2-((6-(4-(2-hydroxyethyl)piperazin-1-yl)-2-methylpyrimidin-4-yl)amino)thiazole-5-carboxamide], the IC50 on SIK1 (setting [1]) was less than 100 nM; at SIK2 (indicative IC50, Table 2A), less than 100 nM; on SIK3 (setting [2]) it was less than 100 nM.
With `Cc1nc(Nc2ncc(C(=O)Nc3c(Cl)cccc3Br)s2)cc(N2CCN(CCO)CC2)n1` [Compound B1, N-(2-bromo-6-chlorophenyl)-2-((6-(4-(2-hydroxyethyl)piperazin-1-yl)-2-methylpyrimidin-4-yl)amino)thiazole-5-carboxamide], the IC50 at SIK1 (setting [3]) is less than 100 nM; at SIK2 (indicative IC50, Table 4), less than 100 nM; at SIK3 (setting [4]), less than 100 nM; at ABL1 wt, less than 100 nM; on SRC (GST-HIS-tag), less than 100 nM.
With `Cc1nc(Nc2ncc(C(=O)Nc3c(Br)cccc3Br)s2)cc(N2CCN(CCO)CC2)n1` [Compound B2, N-(2,6-dibromophenyl)-2-((6-(4-(2-hydroxyethyl)piperazin-1-yl)-2-methylpyrimidin-4-yl)amino)thiazole-5-carboxamide], the IC50 at SIK1 (setting [3]) was less than 100 nM; on SIK2 (indicative IC50, Table 4), less than 100 nM; at SIK3 (setting [4]), more than 100 nM; at ABL1 wt, less than 100 nM; on SRC (GST-HIS-tag), less than 100 nM.
Turning to `COc1c(F)cccc1NC(=O)c1cnc(Nc2cc(N3CCN(CCO)CC3)nc(C)n2)s1` [Compound B4, N-(3-fluoro-2-methoxyphenyl)-2-((6-(4-(2-hydroxyethyl)piperazin-1-yl)-2-methylpyrimidin-4-yl)amino)thiazole-5-carboxamide], the IC50 on SIK1 (setting [3]) is more than 100 nM; at SIK2 (indicative IC50, Table 4), more than 100 nM; at SIK3 (setting [4]), more than 1000 nM; on ABL1 wt, less than 100 nM; on SRC (GST-HIS-tag) it was less than 100 nM.
Turning to `Cc1nc(Nc2ncc(C(=O)Nc3c(C)cccc3Cl)s2)cc(N2CCN(C)CC2)n1` [Compound B5, N-(2-chloro-6-methylphenyl)-2-((2-methyl-6-(4-methylpiperazin-1-yl)pyrimidin-4-yl)amino)thiazole-5-carboxamide], the IC50 is less than 100 nM at SIK1 (setting [3]); less than 100 nM on SIK2 (indicative IC50, Table 4); less than 100 nM at SIK3 (setting [4]); less than 100 nM on ABL1 wt; less than 100 nM at SRC (GST-HIS-tag).
Turning to `CC(=O)N1CCN(c2cc(Nc3ncc(C(=O)Nc4c(C)cccc4Cl)s3)nc(C)n2)CC1` [Compound B6, 2-((6-(4-acetylpiperazin-1-yl)-2-methylpyrimidin-4-yl)amino)-N-(2-chloro-6-methylphenyl)thiazole-5-carboxamide], the IC50 at SIK1 (setting [3]) was less than 100 nM; on SIK2 (indicative IC50, Table 4) it was less than 100 nM; at SIK3 (setting [4]), less than 100 nM; at ABL1 wt, less than 100 nM; on SRC (GST-HIS-tag), less than 100 nM.
For the compound `Cc1nc(NCCO)cc(Nc2ncc(C(=O)Nc3c(C)cccc3Cl)s2)n1` [Compound B7, N-(2-chloro-6-methylphenyl)-2-((6-((2-hydroxyethyl)amino)-2-methylpyrimidin-4-yl)amino)thiazole-5-carboxamide], the IC50 is less than 100 nM on SIK1 (setting [3]); less than 100 nM at SIK2 (indicative IC50, Table 4); less than 100 nM at SIK3 (setting [4]); less than 100 nM on ABL1 wt; less than 100 nM on SRC (GST-HIS-tag).
As for `Cc1nc(Nc2ncc(C(=O)Nc3ccc(F)c(Cl)c3)s2)cc(N2CCN(CCO)CC2)n1` [Compound B9], the IC50 at SIK1 was more than 5000 nM; at SIK2 (indicative IC50, Table 4) it was more than 500 nM; at SIK3, more than 5000 nM.
